# Columns and labels:
# D3 DAR = D3 DAR (Homo sapiens (Human), UniProt P35462); format: cell-based; conditions: β-arrestin recruitment, agonist
# D2 DAR = D2 DAR (Homo sapiens (Human), UniProt P14416); experiment: [35S]GTPγS binding assay; format: biochemical; conditions: % maximum dopamine response
# Excerpt: A [^35S]GTPγS (Perkin Elmer NEG030H) binding assay was utilized as described in the protocol below (Table 7).
# panel of 168 GPCRs [1] = biological target: panel of 168 GPCRs (Homo sapiens, UniProt P08588); format: cell-based; conditions: GPCR ADRB1; agonist, 10 μM
# panel of 168 GPCRs [2] = biological target: panel of 168 GPCRs (Homo sapiens, UniProt P18089); format: cell-based; conditions: GPCR ADRA2B; agonist, 10 μM
# panel of 168 GPCRs [3] = biological target: panel of 168 GPCRs (Homo sapiens, UniProt P25106); format: cell-based; conditions: GPCR CXCR7; agonist, 10 μM
# panel of 168 GPCRs [4] = biological target: panel of 168 GPCRs (Homo sapiens, UniProt P28222); format: cell-based; conditions: GPCR HTR1B; agonist, 10 μM
# panel of 168 GPCRs [5] = biological target: panel of 168 GPCRs (Homo sapiens, UniProt P30550); format: cell-based; conditions: GPCR GRPR; agonist, 10 μM
# panel of 168 GPCRs [6] = biological target: panel of 168 GPCRs (Homo sapiens, UniProt P32239); format: cell-based; conditions: GPCR CCKBR; agonist, 10 μM
# panel of 168 GPCRs [7] = biological target: panel of 168 GPCRs (Homo sapiens, UniProt P32248); format: cell-based; conditions: GPCR CCR7; agonist, 10 μM
# panel of 168 GPCRs [8] = biological target: panel of 168 GPCRs (Homo sapiens, UniProt P32249); format: cell-based; conditions: GPCR EBI2; agonist, 10 μM
# panel of 168 GPCRs [9] = biological target: panel of 168 GPCRs (Homo sapiens, UniProt P35408); format: cell-based; conditions: GPCR PTGER4; agonist, 10 μM
# panel of 168 GPCRs [10] = biological target: panel of 168 GPCRs (Homo sapiens, UniProt P35414); format: cell-based; conditions: GPCR AGTRL1; agonist, 10 μM
# panel of 168 GPCRs [11] = biological target: panel of 168 GPCRs (Homo sapiens, UniProt P43119); format: cell-based; conditions: GPCR PTGIR; agonist, 10 μM
# panel of 168 GPCRs [12] = biological target: panel of 168 GPCRs (Homo sapiens, UniProt P49238); format: cell-based; conditions: GPCR CX3CR1; agonist, 10 μM
# panel of 168 GPCRs [13] = biological target: panel of 168 GPCRs (Homo sapiens, UniProt P49682); format: cell-based; conditions: GPCR CXCR3; agonist, 10 μM
# panel of 168 GPCRs [14] = biological target: panel of 168 GPCRs (Homo sapiens, UniProt Q8TDV5); format: cell-based; conditions: GPCR GPR119; agonist, 10 μM
# panel of 168 GPCRs [15] = biological target: panel of 168 GPCRs (Homo sapiens, UniProt Q96LB1); format: cell-based; conditions: GPCR MRGPRX2; agonist, 10 μM
# panel of 168 GPCRs [16] = biological target: panel of 168 GPCRs (Homo sapiens, UniProt Q96P65); format: cell-based; conditions: GPCR GPR103; agonist, 10 μM
# panel of 168 GPCRs [17] = biological target: panel of 168 GPCRs (Homo sapiens, UniProt Q99500); format: cell-based; conditions: GPCR EDG3; agonist, 10 μM
# [18] = tested on: receptors, transporters and some ion channels; experiment: PDSP primary radioligand binding panel; conditions: 10 μM, >50% inhibition considered significant
# Excerpt: […]. […] […]. […] […].
# [19] = tested on: terminally differentiated SHSY5Y cells; experiment: Neuroprotection assay against 6-hydroxydopamine; format: cell-based; conditions: 24 h pretreatment, 10 μM 6-hydroxydopamine
# Protocol: […]. Protection against total neurite length decrease was measured 24 h later. […].
# TA100 = experiment: Ames reverse mutation assay; format: cell-based; conditions: highest conc. tested 2,000 μg/ml
# Protocol: (§1) […]. The cultures were then diluted into an indicator medium lacking histidine, dispensed into a 384-well plate, and incubated for 48 h at 37° C. Cells that have undergone a reversion will grow, resulting in a color change. The number of wells showing growth were counted and compared to the vehicle control. […]. Data were analyzed using an unpaired, one-sided Student's T-test. Where indicated, S9 fraction from the livers of Aroclor 1254-treated rats were included in the incubation at a 4.5% final concentration. An NADPH-regenerating system was also included to ensure a steady supply of reducing equivalents.
# TA98 = experiment: Ames reverse mutation assay; format: cell-based; conditions: highest conc. tested 2,000 μg/ml
# Protocol: as §1
# Sequence of panel of 168 GPCRs (Homo sapiens, UniProt P32248) (P32248 25-378 limits assumed): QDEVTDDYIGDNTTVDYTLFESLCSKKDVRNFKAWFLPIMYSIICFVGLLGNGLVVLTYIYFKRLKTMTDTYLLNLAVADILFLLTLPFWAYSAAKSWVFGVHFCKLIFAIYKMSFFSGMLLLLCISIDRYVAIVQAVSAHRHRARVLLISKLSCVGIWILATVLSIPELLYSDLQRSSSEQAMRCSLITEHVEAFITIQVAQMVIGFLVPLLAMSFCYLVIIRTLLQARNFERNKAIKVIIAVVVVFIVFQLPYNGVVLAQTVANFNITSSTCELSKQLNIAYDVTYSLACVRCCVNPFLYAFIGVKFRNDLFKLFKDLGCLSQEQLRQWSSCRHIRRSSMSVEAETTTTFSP
# Sequence of D3 DAR (P35462 whole entry): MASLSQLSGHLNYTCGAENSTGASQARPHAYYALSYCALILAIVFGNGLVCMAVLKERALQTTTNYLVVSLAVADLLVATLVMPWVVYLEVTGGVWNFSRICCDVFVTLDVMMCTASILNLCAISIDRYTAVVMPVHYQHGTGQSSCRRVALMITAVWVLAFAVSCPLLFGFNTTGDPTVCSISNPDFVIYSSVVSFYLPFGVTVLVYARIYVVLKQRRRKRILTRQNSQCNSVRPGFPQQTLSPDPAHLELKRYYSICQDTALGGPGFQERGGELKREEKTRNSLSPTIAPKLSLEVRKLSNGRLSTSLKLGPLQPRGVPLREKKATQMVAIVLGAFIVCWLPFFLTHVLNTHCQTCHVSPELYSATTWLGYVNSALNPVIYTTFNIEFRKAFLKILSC
# Sequence of D2 DAR (P14416 whole entry): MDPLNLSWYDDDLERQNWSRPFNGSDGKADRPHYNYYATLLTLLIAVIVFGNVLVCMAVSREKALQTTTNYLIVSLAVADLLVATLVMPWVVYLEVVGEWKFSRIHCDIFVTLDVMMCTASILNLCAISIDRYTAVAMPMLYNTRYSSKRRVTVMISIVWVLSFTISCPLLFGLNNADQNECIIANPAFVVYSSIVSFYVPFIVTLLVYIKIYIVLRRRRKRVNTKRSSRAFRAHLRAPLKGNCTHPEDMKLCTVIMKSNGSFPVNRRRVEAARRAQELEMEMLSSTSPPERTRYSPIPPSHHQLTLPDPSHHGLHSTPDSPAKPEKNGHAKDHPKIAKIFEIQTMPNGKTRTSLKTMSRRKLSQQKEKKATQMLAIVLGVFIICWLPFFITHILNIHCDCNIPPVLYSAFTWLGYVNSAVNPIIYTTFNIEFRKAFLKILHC
smiles,measurement,setting,value
"COc1ccc(OCCN2CCN(C(=O)c3cc4ccccc4[nH]3)CC2)cc1 [Compound 1, (1H-indol-2-yl)(4-(2-(4-methoxyphenoxy)ethyl)piperazin-1-yl)methanone]",EC50,D3 DAR,0.036 µM
same,"activation of the D2 DAR, [35S]GTPγS binding",D2 DAR,not to activate the D2 DAR
same,β-Arrestin Recruitment activity,panel of 168 GPCRs [1],3%
same,β-Arrestin Recruitment activity,panel of 168 GPCRs [2],−4%
same,β-Arrestin Recruitment activity,panel of 168 GPCRs [3],3%
same,β-Arrestin Recruitment activity,panel of 168 GPCRs [4],16%
same,β-Arrestin Recruitment activity,panel of 168 GPCRs [5],0%
same,β-Arrestin Recruitment activity,panel of 168 GPCRs [6],4%
same,β-Arrestin Recruitment activity,panel of 168 GPCRs [7],4%
same,β-Arrestin Recruitment activity,panel of 168 GPCRs [8],0%
same,β-Arrestin Recruitment activity,panel of 168 GPCRs [9],6%
same,β-Arrestin Recruitment activity,panel of 168 GPCRs [10],4%
same,β-Arrestin Recruitment activity,panel of 168 GPCRs [11],4%
same,β-Arrestin Recruitment activity,panel of 168 GPCRs [12],0%
same,β-Arrestin Recruitment activity,panel of 168 GPCRs [13],5%
same,β-Arrestin Recruitment activity,panel of 168 GPCRs [14],16%
same,β-Arrestin Recruitment activity,panel of 168 GPCRs [15],5%
same,β-Arrestin Recruitment activity,panel of 168 GPCRs [16],−9%
same,β-Arrestin Recruitment activity,panel of 168 GPCRs [17],4%
same,affinity in primary binding panel,[18],"displays affinity for only the D3R, 5-HT1A, 5-HT2B, and Sigmal receptor"
same,"neuroprotection, dose-response",[19],clear concentration dependent effect
same,"neuroprotection, protection against total neurite length decrease",[19]; compared with pramipexole,neuroprotection superior to pramipexole
same,AMES Result,"TA100; TA100, S9 No",Negative
same,AMES Result,"TA100; TA100, S9 Yes",Negative
same,AMES Result,"TA98; TA98, S9 No",Negative
same,AMES Result,"TA98; TA98, S9 Yes",Negative

# Source: patent publication US11634404B2 (priority 2016, dated 2023)
